Patent US7056734B1, “Differentiation of non-insulin producing cells into insulin producing cells by GLP-1 or exendin-4 and uses thereof” (The United States of America as represented by the …, priority 1998, dated 2006)
Where two headings read alike, the source gives them in different places.

Tests used:
[1] = tested on: AR42J cells; test: Protein tyrosine phosphorylation in AR42J cells; type: cell-based, rat; details: 5 min treatment
Protocol: Tyrosine Phosphorylation Studies. […] Then the medium was removed and fresh KRBB was added, followed by placing the cell on a 37° C. hot plate for 5 min. After addition of various reagents (see FIG. 24) for 5 min the reaction was terminated by submersion of the dishes in liquid nitrogen. The frozen cells were scraped and lysed in RIPA buffer. […] The blots were developed using the ECL chemiluminescence detection system (Amersham).

[2] = tested on: AR42J cells; test: Amylase release from AR42J cells; type: cell-based, rat; details: for effect on CCK-induced amylase release: combined with CCK (1 nM), genestein 300 μM
Protocol: Cell Culture. AR42J cells were maintained in Dulbecco's modified Eagle's medium (Gibco, Grand Island, N.Y.) (DMEM) supplemented with 10% Fetal Calf Serum, 100 IU/ml penicillin, 100 μg/ml streptomycin and 2 mM glutamine. Cells from passage 23–36 were used throughout this study.
Amylase Assay. For amylase secretion, cells were washed free of medium with 2 ml phosphate buffered saline (PBS). Incubation was then carried out in DMEM containing 15 mM HEPES, 0.2% bovine serum albumin (BSA) and 0.01% soybean trypsin inhibitor. The hormones and reagents of interest were added for 50 min at 37° C. The incubation medium was then immediately removed for amylase determination and the cells were again washed in 2 ml ice-cold PBS. […] The released amylase was expressed as the percentage of the total amylase activity of the cells.

[3] = tested on: AR42J cells; test: Immunoreactive insulin release from treated AR42J cells (RIA); type: cell-based, rat; details: 200 μM PKI or PD98059 (50 μM)
Protocol: Measurement of immunoreactive insulin. AR42J cells were cultured as before in 12-well cluster plates. When cells reached 60% confluence, they were treated with GLP-1 for 3 days. At the beginning of the experiments, an aliquot of the medium was taken in order to assay the insulin accumulation in the medium. Then the cells were twice washed with Kreb's Ringer Balanced Buffer (KRBB) and incubated in the same buffer containing 10 mM glucose for another 1 h. The medium was collected and kept at −20° C. until insulin levels were assayed by RIA (See Example 1; Wang et al., Endocrinology, 1995). The cells were washed with PBS and detached with 0.25% typsin and 0.02% EDTA. The cell pellet was collected and lysed with formic acid for protein determination by the Bradford method (Bradford, 1976), using bovine-globulin as standard.

[4] = tested on: ERK; test: MAP kinase (ERK) activity in AR42J cells; type: cell-based, rat; details: PKI 300 μM
Protocol: MAP Kinase Activity. After treatment, 60 mm dishes of 80% confluent cells were lysed at 4° C. in lysis buffer (in mM): 50 TRIS-HCl, PH 8, 150 NaCl, 5 EDTA, 1% NP-40, 0.25% sodium deoxycholate, 1 NaF, 10 sodium pyrophosphate, 0.1 PMSF, 1 sodium orthovanadate, 20 μg/ml aprotinin, and 10 μg/ml leupeptin. The cell lysate was clarified by centrifugation at 16,000×g at 4° C. for 20 min. The clarified cell lysate was immunoprecipitated overnight at 4° C., rotating with 4.5 μg of ERK1-CT antibody and 40 μl of packed protein G+protein A agarose resin (Oncogene Research Product, Cambridge, Mass.). The immune pellet was assayed for MAPK activity using MBP as the substrate. MBP (18.6 μg) was phosphorylated at 20° C. for 10 min in a final volume of 60 μl containing 20 mM Hepes, PH 7.4, 10 mM MgCl2, 1 mM DTT, 20 uM unlabeled ATP and 40 μCi (3,000 Ci/mmol) [^32P]-ATP. The reaction was terminated by the addition of 25 μl of 3× Laemmli sample buffer and heating at 70° C. for 10 min. MAPK activity was assessed by SDS-PAGE and auto-radiography. The autoradiograms were quantified by densitometry.

[5] = tested on: AR42J cells; test: Immunocytochemistry of insulin- and glucagon-positive AR42J cells; type: cell-based, rat; details: PD98059 50 μM or PKI 300 μM added concurrently with GLP-1
Protocol: Cell culture. AR42J cells were maintained in Dulbecco's modified Eagle's medium (DMEM) supplemented with 10% fetal calf serum (FBS), 100 IU/ml penicillin, 100 μg/ml streptomycin and 2 mM glutamine. Cells from passage 23–35 were used throughout this study. Cells were routinely plated at a density of about 10^5 cells/ml in 12-well cluster dishes or on coverslips and incubated in a humidified incubator at 37° C. with 95% air and 5% CO2.
Immunocytochemistry analysis. Cells were cultured on glass coverslips, washed with phosphate buffered saline (PBS) to remove serum, and fixed with 0.5% glutaraldehyde in PBS. Cells were permeabilized with 0.2% Triton X-100 for 5 min and the rest of the procedure was carried out at room temperature in a humidified chamber. Suction was used to remove reagents between each step but drying of specimens was avoided. Sufficient reagent was used to cover each specimen (approximately 1 or 2 drops was usually adequate). The coverslips were incubated in 0.3% H2O2 in PBS for 30 min to quench endogenous peroxidase activity and washed in PBS×3 times, followed by incubation with 2% goat serum in PBS for 30 min to block non-specific binding of IgG. Excess serum was removed by blotting. The specific primary polyclonal antisera (anti-insulin 1:300; anti-glucagon 1:300) were used. Antibody was diluted in PBS containing 1% goat serum. This was applied to the coverslip and incubated at room temperature for 1 h. The coverslips were washed ×3 times in PBS, each time for 5 min, then incubated with biotinylated second antibody for 1 h and washed ×3 times with PBS. Avidin-biotin-peroxidase complex in PBS was applied for 30 min. Immunoperoxidase labeling was performed with a Vectostain ABC kit (Vector Labs, Burlingame, Calif.). After extensive washing in PBS for 4–5 times (each 5 min), the coverslips were incubated in diaminobenzidine tetrahydrochloride (DAB) in PBS, with 0.01% hydrogen peroxide for 3 min. The reaction was stopped by washing the coverslips in PBS and examined under a light microscope. To confirm specific staining, samples incubated with preabsorbed primary antibody were used as negative control, and the insulin producing cell line RIN 1046-38 cells were used as positive control for our experiments. The avidin-biotin-peroxidase (ABC) procedure was performed according to methods known in the art (Hsu et al., 1981).

[6] = tested on: AR42J cells; test: Amylase content and CCK response of AR42J cells after 72 h treatment; type: cell-based, rat; details: dexamethasone 72 h
Protocol: Amylase Assay. For amylase determination, cells were washed free of medium with 2 ml PBS. Incubation was then carried out in DMEM containing 15 mM HEPES, 0.2% BSA and 0.01% soybean trypsin inhibitor. CCK (1 nM) was added for 50 min at 37° C. The incubation medium was then immediately removed for amylase determination and the cells were again washed in 2 ml ice-cold PBS. Lysate buffer containing (in mM) 130 Tris-HCl, 10 CaCl2, 75 NaCl, and 0.2% Triton X-100 (pH 8.0) was added to the cells and the lysates were then collected for total amylase (Ceska et al., 1969). The released amylase was expressed as the percentage of the total amylase in the cells.

[7] = tested on: AR42J cells; test: Intracellular calcium in single AR42J cells (indo-1); type: cell-based, rat; details: for AR42J cells showing [Ca2+]i response: CCK 1 nM
Protocol: Measurement of intracellular calcium, [Ca^2+]l. AR42J cells were loaded with the fluorescent Ca^2+ probe, indo-1 acetoxymethyl ester (indo-1/AM). […] Both loading with indo-1 and the experiments were carried out at room temperature (22–24° C.). […] The emission field was restricted to a single cell. Indo-1 was excited at 350±5 nm every 5 ms, and the fluorescence emission was split into wavelength bands of 410±5 and 490±5 nm. […] The cell autofluorescence was assessed in a large number of indo-1 non-loaded cells from the same batch. […] Routinely, the cells were exposed to the test solution for 240–300s. Thereafter, the test solution was washed out, while [Ca^2+]l was monitored for additional 120–180s. The test solutions were prepared just prior to the experiment by adding the hormones in standard bathing solution.

[8] = tested on: AR42J cells; test: Intracellular cAMP in AR42J cells; type: cell-based, rat; details: for intracellular cAMP levels: 1 h, GLP-1 0.1 to 100 nM, IBMX 100 nM, CCK 0.1 to 100 nM, exendin-4 0.1 to 10 nM
Protocol: Measurement of cAMP. Cells were grown in 12-well dishes and treated with hormones and reagents±IBMX as described above. They were then washed 3 times in ice-cold PBS and lysed with 1 ml ice-cold […] perchloric acid. The lysates (950 μl) were transferred to microcentrifuge tubes and the pH adjusted to 7.0 using 5 M K2CO3. After centrifugation for 5 min at 10^4 rpm, the supernatant was vacuum dried, and then recovered in 200 μl Tris/EDTA buffer. After addition of 0.15 mM Na2CO3 (50 μl) and 0.15 mM ZnSO^4 (50 μl), followed by incubation for 15 min on ice, the salt precipitate was removed by centrifugation for 15 min at 3.5×10^3 rpm and 50 μl of supernatant was assayed using a cAMP [^3] assay kit (Amersham Corp., Arlington Heights, Ill.), (Steiner et al., 1972).

[9] = tested on: rat acinar cells; details: CCK alone vs 10^−8 M exendin-4 and CCK together; Malhotra et al. 1992; cited from earlier work
[10] = tested on: AR42J cells; test: 125I-GLP-1 binding to AR42J cells; parameters: species or system rat; dose or concentration left out as unconfirmed; details: displacement by cold GLP-1, n=9
Protocol: GLP-1 binding. AR42J cells were plated and cultured as described above. At the start of the binding experiment the cells were incubated with serum-free DMEM for 2 h at 37° C. Cells were then washed twice with 0.5 ml binding buffer containing (in mM) 120 NaCl, 1.2 MgSO4, 13 sodium acetate, 5 KCl, 10 Tris, pH 7.6. […] We only used freshly prepared ^125I-GLP-1 within two weeks of the reference date. At the end of the incubation, the supernatant was discarded and the cells were washed three times with ice-cold PBS. Cells were lysed with 0.5 ml 0.5 N NaOH/0.1% SDS for 30 min at room temperature. The radioactivity was measured in the lysates in an ICN Apec series gamma counter. […] This method has been used previously to characterize GLP-1 binding in CHO cells overexpressing GLP-1 receptor and in 3T3-L1 adipocytes (Montrose-Rafizadeh et al., J. Biol. Chem., 1997; Montrose-Rafizadeh et al., J Cell Physiol., 1997).

[11] = 50 min, glucagon 10 or 100 nM, GLP-1 10 nM, insulin 100 nM, 8-Br-cAMP 100 nM, vanadate 1 mM

## [F-].[Na+] [NaF, sodium fluoride]
[1]
  effect on protein tyrosine phosphorylation: increased
[2]; [11]
  effect on amylase release when given alone: did like-wise

## CCCCCCCCCCCCCCCCOCC(CO)OC (racemic) [PKI, 1-o-Hexadecyl-2-o-methyl-rac-glycerol, reference compound]
[3]
  insulin secretion of GLP-1-treated cells in presence of inhibitor: barely detected
[4]
  MAPK activity with inhibitor alone: decreased MAPK activity to less than that of control cells
[5]
  effect on GLP-1-induced conversion of AR42J cells: conversion of the cells did not occur

## C[C@@H]1C[C@H]2[C@@H]3CCC4=CC(=O)C=C[C@]4(C)[C@@]3(F)[C@@H](O)C[C@]2(C)[C@@]1(O)C(=O)CO [dexamethasone, reference compound]
[6]
  increase in amylase content vs non-dexamethasone-treated cells: 6.6 fold
[6]; non-treated cells 1.88 U/l
  amylase content of cells: 12.57 U/l

## glucagon: islet hormone, from Bachem
[2]; [11]
  effect on amylase release when given alone: no effect
[2]; vanadate 1 mM
  effect on CCK-induced amylase release: inhibited, but did not fully abolish
[7]; glucagon 10 nM
  peak [Ca2+]i transient as percent of resting IFR level: 200–250%
[7]; glucagon 10 nM, 8-bromo-cAMP 0.1 μM for 60–300 sec
  effect on time course of CCK-induced [Ca2+]i transients: attenuated rate of rise and a very slow rate of relaxation
[7]; single cells, glucagon 10 nM
  AR42J cells showing [Ca2+]i response: 70%
[8]; glucagon 10 nM, presence and absence of CCK
  increase in cAMP levels: 2 fold

## O=c1c(-c2ccc(O)cc2)coc2cc(O)cc(O)c12 [Genestein]
[1]
  effect on protein tyrosine phosphorylation: decreased tyrosine phosphorylations induced by CCK
[2]; vanadate 1 mM
  effect on CCK-induced amylase release: decreased

## CCK: Cholecytokinin, stimulus of amylase release, from Sigma
[1]
  increase in tyrosine phosphorylation levels of 46, 66, 120 and 190 kDa proteins: ≥ 2 fold
[2]; 50 min, dexamethasone-induced AR42J cells
  concentration of maximum stimulation of amylase release: 10 nM
[2]; [11]
  effect on amylase release when given alone: potent stimulus of amylase release
[7]; single cells
  peak [Ca2+]i amplitude, increase over resting indo-1 fluorescence ratio (IFR): 2.5–3.5 fold
[7]; single cells, glucagon 10 nM
  AR42J cells showing [Ca2+]i response: 85%
[9]
  total amylase released: 12%
[8]
  intracellular cAMP levels: not altered

## [O]=[V]([O-])([O-])[O-] [vanadate]
[2]
  effect on amylase release when given alone: increased significantly
[2]; vanadate 1 mM
  effect on CCK-induced amylase release: increased significantly

## insulin: islet hormone, from Sigma
[1]
  effect on protein tyrosine phosphorylation: increased phosphorylation of 97 kDa band
[2]; [11]
  effect on amylase release when given alone: did not influence amylase release
[2]; vanadate 1 mM
  effect on CCK-induced amylase release: did not influence amylase release
[2]; pre-incubation 8, 24, 48 or 72 h with GLP-1 (10 nM) and insulin (100 nM)
  basal or CCK (1 nM)-induced amylase release after pre-incubation: did not increase

## COc1cccc(-c2cc(=O)c3ccccc3o2)c1N [PD98059, reference compound]
[3]
  insulin secretion of GLP-1-treated cells in presence of inhibitor: barely detected
[5]
  effect on GLP-1-induced conversion of AR42J cells: conversion of the cells did not occur

## ^125I-GLP-1: radiolabelled GLP-1 (2,000 Ci/mmol, Peninsula)
[10]
  specific 125I-GLP-1 binding, % of total binding: 27±3.2%
  specific 125I-GLP-1 binding, % of total radioactivity added: 0.64±0.16%

## CC(C)Cn1c(=O)n(C)c(=O)c2[nH]cnc21 [IBMX]
[8]
  intracellular cAMP levels: not altered
